According to the supplement of paper PMC11003180:

Legend:
Experiment in all cases: drug sensitivity score (DSS) from 5-dose viability curve (DSS (area-based score, 0 = no response)); higher = more sensitive (stronger viability inhibition); extreme values may be limits of the assay
[1] = tested on: MDCK wild-type - doxycycline; conditions: doxycycline: none; 72 h
Outline: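 Parental MDCK cells without doxycycline were dispensed at 2000 cells/well onto pre-spotted 384-well plates. The plates held an oncology library of 528 drugs at five doses (1-10,000 nM) and were incubated 72 h at 37 °C. Viability was read as CellTiter-Glo luminescence and scaled per plate between vehicle and positive controls. Drug sensitivity scores came from dose-response curve fits in the Breeze pipeline.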

[2] = tested on: MDCK wild-type + doxycycline; conditions: doxycycline: 10 ng/mL; 72 h
Outline: (§1)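 After 72 h at 37 °C on 384-well plates pre-spotted with 528 oncology drugs at five doses (1-10,000 nM), parental and doxycycline-inducible MDCK cells were assessed; both lines had been given 10 ng/mL doxycycline in the medium before seeding at 2000 cells/well. Viability was taken from CellTiter-Glo luminescence scaled per plate to vehicle and positive controls, and drug sensitivity scores were derived from dose-response fits in the Breeze pipeline.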

[3] = tested on: MDCK p60AmotL2-inducible + doxycycline (p60AmotL2 expressing); conditions: doxycycline: 10 ng/mL; 72 h
Outline: as §1

CC(=O)O[C@@]12CO[C@@H]1C[C@H](O)[C@@]1(C)C(=O)[C@H](O)C3=C(C)[C@@H](OC(=O)[C@H](O)[C@@H](NC(=O)OC(C)(C)C)c4ccccc4)C[C@@](O)([C@@H](OC(=O)c4ccccc4)[C@H]21)C3(C)C [Docetaxel]
drug sensitivity score [1]: 19.3 | drug sensitivity score [2]: 23.2 | drug sensitivity score [3]: 27

Cc1sc2c(c1C)C(c1ccc(Cl)cc1)=N[C@@H](CC(=O)Nc1ccc(OCCOCCOCCOCCNc3cccc4c3C(=O)N(C3CCC(=O)NC3=O)C4=O)cc1)c1nnc(C)n1-2 (some centres not stated) [ARV-825]
drug sensitivity score [1]: 5.5 | drug sensitivity score [2]: 7.3 | drug sensitivity score [3]: 11.2

CC(C)(C)c1nc(-c2cccc(NS(=O)(=O)c3c(F)cccc3F)c2F)c(-c2ccnc(N)n2)s1 [Dabrafenib]
drug sensitivity score [1]: 0 | drug sensitivity score [2]: 0 | drug sensitivity score [3]: 0

CCCCCOC(=O)Nc1nc(=O)n([C@@H]2O[C@H](C)[C@@H](O)[C@H]2O)cc1F [Capecitabine]
drug sensitivity score [1]: 5.1 | drug sensitivity score [2]: 7 | drug sensitivity score [3]: 7.1

CCN(c1cc(-c2ccc(CN3CCOCC3)cc2)cc(C(=O)NCc2c(C)cc(C)[nH]c2=O)c1C)C1CCOCC1 [Tazemetostat]
drug sensitivity score [1]: 0 | drug sensitivity score [2]: 0 | drug sensitivity score [3]: 2.1

Cc1nc(Nc2n[nH]c3c2CN(C(=O)N[C@H](CN(C)C)c2ccccc2)C3(C)C)c2sccc2n1
drug sensitivity score [1]: 12.4 | drug sensitivity score [2]: 18 | drug sensitivity score [3]: 22.1

Cc1cn(-c2cc(NC(=O)c3ccc(C)c(Nc4nccc(-c5cccnc5)n4)c3)cc(C(F)(F)F)c2)cn1 [Nilotinib]
drug sensitivity score [1]: 0 | drug sensitivity score [2]: 0 | drug sensitivity score [3]: 0

CN(C)C/C=C/C(=O)Nc1cc2c(Nc3ccc(F)c(Cl)c3)ncnc2cc1O[C@H]1CCOC1 [Afatinib]
drug sensitivity score [1]: 4.2 | drug sensitivity score [2]: 3.5 | drug sensitivity score [3]: 18.3

CCOCc1nc2c(N)nc3ccccc3c2n1CC(C)(C)O [Resiquimod]
drug sensitivity score [1]: 0 | drug sensitivity score [2]: 0 | drug sensitivity score [3]: 0

Cc1cccc(-c2[nH]c(CNc3ccccc3F)nc2-c2ccc3ncnn3c2)n1 [TEW-7197]
drug sensitivity score [1]: 1.1 | drug sensitivity score [2]: 0 | drug sensitivity score [3]: 4.3

C[C@]1(O)C[C@@H](c2nc(-c3ccc4ccc(-c5ccccc5)nc4c3)c3c(N)nccn32)C1 [Linsitinib]
drug sensitivity score [1]: 0 | drug sensitivity score [2]: 0 | drug sensitivity score [3]: 0

Cc1ccc(=O)n(-c2ccccc2)c1 [Pirfenidone]
drug sensitivity score [1]: 0 | drug sensitivity score [2]: 0 | drug sensitivity score [3]: 0

CNC(=O)c1ccccc1Nc1nc(Nc2ccc3c(c2OC)CCC[C@H](N2CCN(CCO)CC2)C3)ncc1Cl
drug sensitivity score [1]: 6.8 | drug sensitivity score [2]: 6.2 | drug sensitivity score [3]: 8.8

C[C@H]1C[C@@H](n2c(Nc3ccc(OC(F)(F)F)cc3)nc3cc(CCC(=O)O)ccc32)CC(C)(C)C1
drug sensitivity score [1]: 0 | drug sensitivity score [2]: 0 | drug sensitivity score [3]: 0

Cc1cnc(NC(=O)Nc2cc(Br)c(C)cc2OC[C@@H]2CNCCO2)cn1 [Rabusertib]
drug sensitivity score [1]: 0 | drug sensitivity score [2]: 0 | drug sensitivity score [3]: 0

Nc1cc(C(F)(F)F)c(-c2cc(N3CCOCC3)nc(N3CCOCC3)n2)cn1 [Buparlisib]
drug sensitivity score [1]: 5.1 | drug sensitivity score [2]: 7 | drug sensitivity score [3]: 6.3

Cn1ncnc1[C@H]1c2n[nH]c(=O)c3cc(F)cc(c23)N[C@@H]1c1ccc(F)cc1 [Talazoparib]
drug sensitivity score [1]: 0 | drug sensitivity score [2]: 0 | drug sensitivity score [3]: 2.3

CCCC(CCC)C(=O)O [Valproic acid]
drug sensitivity score [1]: 0 | drug sensitivity score [2]: 0 | drug sensitivity score [3]: 0

COc1ccc(COc2cc3oc(=O)c4cc(C(C)O)ccc4c3cc2OC)cc1 (configuration not stated) [Palomid-529]
drug sensitivity score [1]: 0 | drug sensitivity score [2]: 0 | drug sensitivity score [3]: 0.1

CCN(CC)CCCC(C)Nc1ccnc2cc(Cl)ccc12 (configuration not stated) [Chloroquine]
drug sensitivity score [1]: 5.1 | drug sensitivity score [2]: 4.5 | drug sensitivity score [3]: 5.2

Cc1cc2c(C(=O)NC[C@H](C)c3ccccc3)c(O)c(O)cc2c(O)c1-c1c(C)cc2c(C(=O)NC[C@H](C)c3ccccc3)c(O)c(O)cc2c1O [Sabutoclax]
drug sensitivity score [1]: 13.9 | drug sensitivity score [2]: 19.3 | drug sensitivity score [3]: 23

COc1cc(Br)c(Nc2nc(-c3c(C)nc4ncccn34)cs2)c(Br)c1 [PTC-209]
drug sensitivity score [1]: 9.6 | drug sensitivity score [2]: 11.4 | drug sensitivity score [3]: 13.8

CCc1cnn2c(NCc3ccc[n+]([O-])c3)cc(N3CCCC[C@H]3CCO)nc12 [Dinaciclib]
drug sensitivity score [1]: 18.3 | drug sensitivity score [2]: 17 | drug sensitivity score [3]: 16.3

O=c1sn(-c2cccc3ccccc23)c(=O)n1Cc1ccccc1 [Tideglusib]
drug sensitivity score [1]: 0 | drug sensitivity score [2]: 0 | drug sensitivity score [3]: 0

CNC(=O)c1ccc2cc([C@@]3(O)CCn4cncc43)ccc2c1 [Orteronel]
drug sensitivity score [1]: 0 | drug sensitivity score [2]: 0 | drug sensitivity score [3]: 0

CNC(=O)c1cc(Oc2ccc(NC(=O)Nc3ccc(Cl)c(C(F)(F)F)c3)c(F)c2)ccn1 [Regorafenib]
drug sensitivity score [1]: 3.2 | drug sensitivity score [2]: 3.2 | drug sensitivity score [3]: 5.6

CC1=C(/C=C/C(C)=C/C=C/C(C)=C/C(=O)O)C(C)(C)CCC1 [Tretinoin]
drug sensitivity score [1]: 0.7 | drug sensitivity score [2]: 0 | drug sensitivity score [3]: 0

CN1CCN(C(=O)c2ccc3cc(CCNc4ncnc5ccc(C#N)cc45)ccc3c2)CC1 [Senexin B]
drug sensitivity score [1]: 0 | drug sensitivity score [2]: 0.1 | drug sensitivity score [3]: 0.6

CN[C@@H](C)C(=O)N[C@H](C(=O)N1CCC[C@H]1c1nc(C(=O)c2ccc(F)cc2)cs1)C1CCCCC1 [NVP-LCL161]
drug sensitivity score [1]: 0 | drug sensitivity score [2]: 3.1 | drug sensitivity score [3]: 0.5

Clc1ccccc1C(c1ccccc1)(c1ccccc1)n1cccn1 [TRAM-34]
drug sensitivity score [1]: 0 | drug sensitivity score [2]: 0 | drug sensitivity score [3]: 0

C[C@@H](Oc1cc(-c2cnn(C3CCNCC3)c2)cnc1N)c1c(Cl)ccc(F)c1Cl [Crizotinib]
drug sensitivity score [1]: 0 | drug sensitivity score [2]: 0 | drug sensitivity score [3]: 0

CC[C@@H]1[C@H](F)C(=O)N[C@@H]1COc1nccc2cc(C(N)=O)c(OC)cc12
drug sensitivity score [1]: 0 | drug sensitivity score [2]: 0.8 | drug sensitivity score [3]: 0.2

O=C(O)C(=O)O.[NH-][C@@H]1CCCC[C@H]1[NH-].[Pt+2] [Oxaliplatin]
drug sensitivity score [1]: 8.1 | drug sensitivity score [2]: 10.2 | drug sensitivity score [3]: 12.3

CC(=O)c1cnc2ccc(-c3cc(Cl)c(O)c(Cl)c3)nc2c1N[C@H]1CC[C@H](CN(C)C)CC1 [OTS167]
drug sensitivity score [1]: 17.2 | drug sensitivity score [2]: 19.4 | drug sensitivity score [3]: 18.8

CCN(CC)CCOc1ccc(C(=C(Cl)c2ccccc2)c2ccccc2)cc1 [Clomifene]
drug sensitivity score [1]: 4.4 | drug sensitivity score [2]: 4.7 | drug sensitivity score [3]: 5.3

COc1cc2ncnc(Oc3cccc(NC(=O)Nc4cc(C(C)(C)C(F)(F)F)on4)c3)c2cc1OC
drug sensitivity score [1]: 0 | drug sensitivity score [2]: 0 | drug sensitivity score [3]: 0

Cc1cnc(-c2ccccc2C(C)C)nc1NCc1ccc(-n2ccnn2)cc1 [ML323]
drug sensitivity score [1]: 0 | drug sensitivity score [2]: 0 | drug sensitivity score [3]: 1.4

Cc1c2oc3c(C)ccc(C(=O)N[C@@H]4C(=O)N[C@H](C(C)C)C(=O)N5CCC[C@H]5C(=O)N(C)CC(=O)N(C)[C@@H](C(C)C)C(=O)O[C@@H]4C)c3nc-2c(C(=O)N[C@@H]2C(=O)N[C@H](C(C)C)C(=O)N3CCC[C@H]3C(=O)N(C)CC(=O)N(C)[C@@H](C(C)C)C(=O)O[C@@H]2C)c(N)c1=O [Dactinomycin]
drug sensitivity score [1]: 25.2 | drug sensitivity score [2]: 27.6 | drug sensitivity score [3]: 32.9

C=CC[C@@H]1/C=C(\C)C[C@H](C)C[C@H](OC)[C@H]2O[C@@](O)(C(=O)C(=O)N3CCCC[C@H]3C(=O)O[C@H](/C(C)=C/[C@@H]3CC[C@@H](O)[C@H](OC)C3)[C@H](C)[C@@H](O)CC1=O)[C@H](C)C[C@@H]2OC [Tacrolimus]
drug sensitivity score [1]: 0 | drug sensitivity score [2]: 0 | drug sensitivity score [3]: 0

COc1ccccc1S(=O)(=O)Nc1ccc2c(c1)CN(C)C(=O)N2 [PFI-1]
drug sensitivity score [1]: 0.3 | drug sensitivity score [2]: 2.4 | drug sensitivity score [3]: 5.3

O=C(O)CC[C@H]1CC[C@@](c2cc(F)ccc2F)(S(=O)(=O)c2ccc(Cl)cc2)CC1 [MK-0752]
drug sensitivity score [1]: 0 | drug sensitivity score [2]: 0 | drug sensitivity score [3]: 0

Nc1nc(Cl)nc2c1ncn2[C@H]1C[C@H](O)[C@@H](CO)O1 [Cladribine]
drug sensitivity score [1]: 1.2 | drug sensitivity score [2]: 2.3 | drug sensitivity score [3]: 2.3

COc1cc2c(cc1OCCCN1CCCC1)N=C(N)C21CCC1 [A-366]
drug sensitivity score [1]: 0 | drug sensitivity score [2]: 0 | drug sensitivity score [3]: 0

Cc1ccc(NC(=O)c2ccc(CN3CCN(C)CC3)cc2)cc1Nc1nccc(-c2cccnc2)n1 [Imatinib]
drug sensitivity score [1]: 2.7 | drug sensitivity score [2]: 0 | drug sensitivity score [3]: 3.4
